Like-named read-outs stand apart in the source and are kept apart here.
Legend:
[1] = tested on: P. simplex bacteria (steroid responsive genome island, SRGI); assay: RNA-Seq screen of steroid treated P. simplex against solvent controls; type: cell-based, Pimelobacter simplex; details: Log2 fold change vs solvent control
Description: In order to identify steroid binding Transcription Factors, a whole transcriptome RNA sequencing (RNA-Seq) screen was developed (FIG. 7). The growth of Pimelobacter simplex bacteria was profiled with respect to the starting inoculation density, solvent toxicity, and the addition of steroids (FIG. 16). […] P. simplex bacteria were screened against the steroid solvents ethanol (EtOH) and dimethyl sulfoxide (DMSO). […] Steroid growth curves were similarly performed using a starting OD of 0.005 and constant solvent dosing with titrations of steroids. […] P. simplex bacteria were grown in the presence of 700 μM testosterone, 21.88 μM progesterone, 87.50 μM estrone, 21.88 μM 17β-estradiol, 21.88 μM hydrocortisone, or 175.00 μM aldosterone concentrations were selected for comparison.
Using accession gene tags, genes were annotated for steroid relevant enzymes or transcription factors. […] Allosteric TF binding sequences are often palindromes and typically located near the start of its gene location in an intergenic space. With such a design, the allosteric TF can regulate itself or the open reading frame (ORF) near it in response to its effector molecule. […] Once identified, the TFs were cloned and recombinantly expressed for thorough characterization.
Cells were grown in 6 mL volumes of media at the OD, solvent, and steroid concentrations found from the growth curves in 14 mL polypropylene round-bottom tubes (Corning #352059) in technical duplicate. The same controls as in the steroid exposure growth curve were used for setting up RNA extraction samples. The cells were incubated at their corresponding temperature with continuous orbital shaking at 150 rpm until the end of lag-phase, mid-log phase, or stationary phase from the start of inoculation. Afterward, samples were removed and a 1:1 ratio of RNAprotect Bacteria Reagent (Qiagen #76506) was added followed by spinning down at 4° C. for 10 minutes at 4000 g. Supernatant was removed and the pellet re-suspended in 300 μL of RNAprotect and transferred into 2.0 mL Safe-Lock Tubes (Eppendorf #3101). The samples were then spun down once again at 4° C. for 10 minutes at 10000 g. Once the supernatant has been removed the samples were placed on ice and ready for RNA extraction. RNA extraction was done by Qiacube (Qiagen #9001292) set to the RNeasy Protect Bacteria Mini Kit protocol of bacterial cell pellet with enzymatic lysis. Tube A was prepared as described except with the addition of 150 mg/mL lysozyme (Sigma-Aldrich #L6876) and 20 mg/mL proteinase K (Roche #03115879001) all diluted in 1xTE buffer. RNA samples were subsequently quantified using Qubit RNA HS Assay Kit (Thermo Fisher Scientific #Q32852) and analyzed using a RNA 6000 Pico Kit (Agilent 5067-1513) in a 2100 Bioanalyzer (Agilent G2939A). RNA samples were either immediately used for RNA-Seq library preparation or stored long-term at −80° C.
RNA-Seq libraries were then produced from these samples using a slightly modified ScriptSeq v2 RNA-Seq Library Preparation Kit (Illumina 455A/22124) ensuring use of unique index primers through ScriptSeq Index PCR Primers (Sets 1-4) 48 rxns/set (Illumina #SSIP1234).

[2] = target: Pimelobacter simplex PinR (AIY20223.2; SEQ ID NO: 1), his-tagged (AIY-his6); assay: QD-FRET steroid sensor (QD-PinR + DNA-Cy5), steroid-induced TF-DNA unbinding; type: biochemical
Procedure: Fluorescent spectra were analyzed using MATLAB (Mathworks) and were fitted with a sum of 2 Gaussians (D=QD: FWHM=27 nm, λmax=607 nm; A=DNA-Cy5: FWHM=40 nm, λmax=669 nm). The area of each Gaussian was extracted and FD and FA are obtained respectively for the fluorescence of QD (donor) and Cy5 (acceptor).
Raw dose-response curves were obtained by plotting FA/FD as a function of the steroid concentration. Sensor output is the normalization of the fluorescent spectra of the donor and acceptor according to the following equation: […]
Non-normalized dose-response were fitted with Origin Pro 8 software with the non-linear equation: […]
The cross-reactivity of progesterone regarding the different steroids was calculated with the following equation: […]
CdSe/CdS/ZnS QDs were coated with a zwitterionic polymer bearing histamine anchoring functions (P1, SI). Once the hydrophobic QDs were transferred into H2O using a biphasic ligand exchange, his-tagged TFs were self-assembled on the QD surface to produce the QD-TF. Addition of the double stranded, Cy5-labeled TF-binding sequence completed probe assembly as the oligo binds to the TF in the absence of progesterone (PRG). The molar ratios of the QD, TF, and DNA in the sensor were controlled through the stoichiometric ratios of the mixed parts.
Two fluorescent spectra were recorded, one from the QDs and one from the Cy5 due to the FRET.
First, the DNA1 (most binding sequence) has been used to build the first biosensor, named sensor 1. For this sensor, a ratio of QD/TF/DNA of 1/4/18 was chosen. […] In order to homogenize the fluorescent signals in between batches and different sensor variations, FA/FD was normalized to give the signal output. Signal output is then plotted against PRG concentration to give a dose-response curve (FIG. 9C) This curve was fitted with the non-linear equation XX to obtain the half-maximal inhibitory concentration (IC50) (Table 13).
Description for a typical experiment, using a molar ratio of QD/TF/DNA=1/4/18. QDs in (275 uL, 0.15 uM in HEPES 1×, pH 7.6 with 1% BSA) were mixed with AIY-his6 (275 uL, 0.6 uM in HEPES 1× pH 7.6) at room temperature for 45 min. Then, the double-stranded DNA labelled with a Cy5 fluorescent probe at the 3′ and 5′ ends (275 uL, 2.7 uM in HEPES 1× pH 7.6) was added to the mixture. After 30 min, 220 uL of HEPES 1× pH 7.5 and 330 uL of 5× binding buffer (25 mM MgCl2, 25% glycerol, and 250 mg/L Invitrogen™ UltraPure™ Salmon Sperm DNA in Tris-HCl 0.1M) were added and the mixture is left 15 more min at RT.
50 uL of the sensor (QD/TF/DNA) was then splitted in 3×9 centrifuge tubes to which 10 uL of progesterone at the desired concentration is added. As such, the final concentration of QD/TF/DNA for the measurements is 25 nM/100 nM/450 nM. A 384 well plate was filled with 60 uL of each solution. The fluorescence intensity was monitored on a spectrofluorimeter from 535 nm to 800 nm exciting at 400 nm, equipped with a 450 nm long-pass filter in emission.

With `CC(=O)[C@H]1CC[C@H]2[C@@H]3CCC4=CC(=O)CC[C@]4(C)[C@H]3CC[C@]12C` [PRG, Progesterone] the “upregulation of genes inside the SRGI (in words)” value [1] was “upregulation of genes inside the SRGI were observed”, the IC50 ([2]; DNA1, QD/TF/DNA 1/4/18, read-out: X0) was 460 ± 20 nM and the IC50 ([2]; DNA2, QD/TF/DNA 1/4/18, read-out: X0) was 370 ± 10 nM. The IC50 ([2]; DNA 3, QD/TF/DNA 1/1/2, read-out: X0) was 210 nM, the IC50 ([2]; DNA 3, QD/TF/DNA 1/1/18, read-out: X0) was 350 nM and the IC50 ([2]; DNA 3, QD/TF/DNA 1/2/2, read-out: X0) was 270 nM. The IC50 ([2]; DNA 3, QD/TF/DNA 1/2/18, read-out: X0) was 410 nM, the IC50 ([2]; DNA 3, QD/TF/DNA 1/4/2, read-out: X0) was 200 nM and the IC50 ([2]; DNA 3, QD/TF/DNA 1/4/18 (Table 11), read-out: X0) was 290 nM. It also gave an IC50 ([2]; DNA3, QD/TF/DNA 1/4/18, read-out: X0) of 290 ± 20 nM, an IC50 ([2]; DNA 3, QD/TF/DNA 1/10/18, read-out: X0) of 390 nM and an IC50 ([2]; DNA 3, QD/TF/DNA 1/16/18, read-out: X0) of 440 nM. It also gave an IC50 ([2]; DNA 4, QD/TF/DNA 1/1/4, read-out: X0) of 49 ± 12 nM, an IC50 ([2]; DNA 4, QD/TF/DNA 1/1/18, read-out: X0) of 74 ± 18 nM and an IC50 ([2]; DNA 4, QD/TF/DNA 1/4/9, read-out: X0) of 140 ± 14 nM. It also gave an IC50 ([2]; DNA 4, QD/TF/DNA 1/4/18 (Table 12), read-out: X0) of 150 ± 12 nM, an IC50 ([2]; DNA4, QD/TF/DNA 1/4/18, read-out: X0) of 150 ± 10 nM and an IC50 ([2]; DNA 4, QD/TF/DNA 1/16/8, read-out: X0) of 380 ± 16 nM. For the same compound, the IC50 ([2]; sensor 2 (DNA 2, QD/TF/DNA=1/4/18), read-out: IC50) was 133 ± 9 nM and the IC50 ([2]; sensor 3 (DNA 2, QD/TF/DNA=1/1/18), read-out: IC50) was 57 ± 3 nM.

From US11360104B2, “Microbial-based biosensors” (TRUSTEES OF BOSTON UNIVERSITY, priority 2017, dated 2022)
